The source made the active and inactive calls. The rule behind the calls is not given here. Starred links: 1 amine or outer side, 2 acyl side, 3 side chain; linkers in the order of their positions; H or OH if unused. Non-standard residues stand in square brackets, D forms with d. Residues, ends and D or L forms follow the SMILES beside them. dTrp(2-Me) = Cc1[nH]c2ccccc2c1C[C@@H](N)C(=O)O; azaTyr = O=C(N(Cc1ccc(O)cc1)N[*:1])[*:2]; azaPhe = O=C(N(Cc1ccccc1)N[*:1])[*:2]
Assays:
[1] = biological target: Platelet glycoprotein 4 (Mus musculus) (UniProt Q08857); test: Modulation of CD36 in mouse J774A.1 cells assessed as inhibition of R-FSL1-induced NO over production at 1 uM preincubated for 1 hr followed by overnight R-FSL1 stimulation by DAN-fluorescence assay relative to control; assay type: cell-based
[2] = biological target: Platelet glycoprotein 4 (Mus musculus) (UniProt Q08857); test: Modulation of CD36 in mouse […] cells assessed as inhibition of R-FSL1-induced NO over production at 1 uM preincubated for 1 hr followed by overnight R-FSL1 stimulation by DAN-fluorescence assay relative to control; assay type: cell-based
[3] = biological target: Platelet glycoprotein 4 (Rattus norvegicus, UniProt Q07969); test: Inhibition of photoactivatable [125I]-Tyr-Bpa-Ala-hexarelin binding to CD36 in Sprague-Dawley rat heart membranes after 60 mins by SDS-PAGE analysis; assay type: cell membranes, Membrane
[4] = biological target: Platelet glycoprotein 4 (Rattus norvegicus) (UniProt Q07969); test: Inhibition of photoactivatable [125I]-Tyr-Bpa-Ala-hexarelin binding to CD36 in Sprague-Dawley rat heart membranes after 60 mins by SDS-PAGE analysis relative to H-His-D-Trp-Ala-aza(3-hydroxy)Phe-D-Phe-Lys-NH2; assay type: cell membranes; settings: Membrane
[5] = species: Mus musculus; test: Anti-angiogenic activity in mouse sclera/choroid/retinal pigment epithelium complex assessed as reduction in microvascular sprouting at 1 uM after 24 hrs by microscopic analysis; assay type: functional
[6] = Pro-angiogenic activity in mouse sclera/choroid/retinal pigment epithelium complex assessed as increase in microvascular sprouting at 1 uM after 24 hrs by microscopic analysis; assay type: ADME

Chain of Platelet glycoprotein 4 (Q07969 whole entry): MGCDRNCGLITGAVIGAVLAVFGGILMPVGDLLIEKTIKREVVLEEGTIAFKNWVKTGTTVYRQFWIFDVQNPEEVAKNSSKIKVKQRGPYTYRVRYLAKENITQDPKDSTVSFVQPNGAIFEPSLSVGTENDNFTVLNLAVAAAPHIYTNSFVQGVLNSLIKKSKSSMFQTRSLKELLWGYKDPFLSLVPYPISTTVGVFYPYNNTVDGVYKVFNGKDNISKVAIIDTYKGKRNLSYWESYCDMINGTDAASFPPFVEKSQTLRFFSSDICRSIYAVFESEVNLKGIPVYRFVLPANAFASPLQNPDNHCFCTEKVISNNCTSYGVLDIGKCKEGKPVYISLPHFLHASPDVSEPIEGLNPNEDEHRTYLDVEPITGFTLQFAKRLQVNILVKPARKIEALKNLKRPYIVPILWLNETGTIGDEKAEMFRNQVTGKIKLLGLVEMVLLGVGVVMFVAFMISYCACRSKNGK
Chain of Platelet glycoprotein 4 (Rattus norvegicus) (Q07969 whole entry): as above
Chain of Platelet glycoprotein 4 (Mus musculus) (Q08857 whole entry): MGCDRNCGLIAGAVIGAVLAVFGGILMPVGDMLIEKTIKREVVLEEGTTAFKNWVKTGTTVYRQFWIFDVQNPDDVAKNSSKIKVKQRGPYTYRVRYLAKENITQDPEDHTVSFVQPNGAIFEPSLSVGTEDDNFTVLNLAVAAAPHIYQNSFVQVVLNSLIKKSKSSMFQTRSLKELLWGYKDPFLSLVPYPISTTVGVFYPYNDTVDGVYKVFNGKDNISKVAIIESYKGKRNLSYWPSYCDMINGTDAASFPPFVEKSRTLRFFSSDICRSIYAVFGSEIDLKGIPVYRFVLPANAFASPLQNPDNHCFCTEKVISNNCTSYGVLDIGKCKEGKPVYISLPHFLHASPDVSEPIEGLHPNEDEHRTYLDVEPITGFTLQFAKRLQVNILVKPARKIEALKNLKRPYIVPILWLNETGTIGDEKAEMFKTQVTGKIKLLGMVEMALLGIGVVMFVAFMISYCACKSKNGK

inhibition [1]	inhibition [2]	IC50 [3]	fold change (FC) [4]	SMILES	Activity [5]	Activity [6]
inactive	inactive	–	–	COc1cc(Cl)cc(Cl)c1CN(NC(=O)[C@H](C)NC(=O)[C@@H](Cc1c[nH]c2ccccc12)NC(=O)[C@@H](N)Cc1cnc[nH]1)C(=O)N[C@H](Cc1ccccc1)C(=O)N[C@@H](CCCCN)C(N)=O	–	–
Active	Active	5.51 µM	5.1	Cc1cccc(C)c1CN(NC(=O)[C@H](C)NC(=O)[C@@H](Cc1c[nH]c2ccccc12)NC(=O)[C@@H](N)Cc1cnc[nH]1)C(=O)N[C@H](Cc1ccccc1)C(=O)N[C@@H](CCCCN)C(N)=O	inactive	–
inactive	inactive	–	–	C[C@H](N)C(=O)N[C@H](Cc1c[nH]c2ccccc12)C(=O)N[C@@H](C)C(=O)NN(Cc1ccc(C(F)(F)F)cc1)C(=O)N[C@H](Cc1ccccc1)C(=O)N[C@@H](CCCCN)C(N)=O	–	–
inactive	inactive	–	–	C[C@H](NC(=O)[C@@H](Cc1c[nH]c2ccccc12)NC(=O)[C@@H](N)Cc1cnc[nH]1)C(=O)NN(Cc1ccc(C(F)(F)F)cc1)C(=O)N[C@H](Cc1ccccc1)C(=O)N[C@@H](CCCCN)C(N)=O	–	–
inactive	inactive	–	–	C[C@H](NC(=O)[C@@H](Cc1c[nH]c2ccccc12)NC(=O)[C@@H](N)Cc1cnc[nH]1)C(=O)NN(Cc1c(F)cc(F)cc1F)C(=O)N[C@H](Cc1ccccc1)C(=O)N[C@@H](CCCCN)C(N)=O	–	–
Active	Active	–	–	C[C@H](N)C(=O)N[C@H](Cc1c[nH]c2ccccc12)C(=O)N[C@@H](C)C(=O)NN(Cc1ccc([N+](=O)[O-])cc1)C(=O)N[C@H](Cc1ccccc1)C(=O)N[C@@H](CCCCN)C(N)=O	–	–
inactive	inactive	1.9 µM	14.8	C[C@H](NC(=O)[C@@H](Cc1c[nH]c2ccccc12)NC(=O)[C@@H](N)Cc1cnc[nH]1)C(=O)NN(Cc1ccc(O)cc1)C(=O)N[C@H](Cc1ccccc1)C(=O)N[C@@H](CCCCN)C(N)=O (H-H[dW]A[azaTyr][dF]K-NH2)	Active	–
Active	Active	8.36 µM	3.4	C[C@H](NC(=O)[C@@H](Cc1c[nH]c2ccccc12)NC(=O)[C@@H](N)Cc1cnc[nH]1)C(=O)NN(Cc1ccc(Cl)cc1)C(=O)N[C@H](Cc1ccccc1)C(=O)N[C@@H](CCCCN)C(N)=O	–	Toxic
Active	Active	7.51 µM	3.7	COc1ccc(CN(NC(=O)[C@H](C)NC(=O)[C@@H](Cc2c[nH]c3ccccc23)NC(=O)[C@@H](N)Cc2cnc[nH]2)C(=O)N[C@H](Cc2ccccc2)C(=O)N[C@@H](CCCCN)C(N)=O)cc1	Active	–
–	–	12.5 µM	2.2	C[C@H](N)C(=O)N[C@H](Cc1c[nH]c2ccccc12)C(=O)N[C@@H](C)C(=O)NN(Cc1ccc(Br)cc1)C(=O)N[C@H](Cc1ccccc1)C(=O)N[C@@H](CCCCN)C(N)=O	inactive	–
inactive	inactive	–	–	C[C@H](NC(=O)[C@@H](Cc1c[nH]c2ccccc12)NC(=O)[C@@H](N)Cc1cnc[nH]1)C(=O)NN(Cc1c[nH]nn1)C(=O)N[C@H](Cc1ccccc1)C(=O)N[C@@H](CCCCN)C(N)=O	–	–
Active	Active	–	–	COc1ccc(CN(NC(=O)[C@H](C)NC(=O)[C@@H](Cc2c[nH]c3ccccc23)NC(=O)[C@H](C)N)C(=O)N[C@H](Cc2ccccc2)C(=O)N[C@@H](CCCCN)C(N)=O)cc1	–	–
inactive	inactive	–	–	COc1cc(Cl)c(CN(NC(=O)[C@H](C)NC(=O)[C@@H](Cc2c[nH]c3ccccc23)NC(=O)[C@@H](N)Cc2cnc[nH]2)C(=O)N[C@H](Cc2ccccc2)C(=O)N[C@@H](CCCCN)C(N)=O)c(Cl)c1	–	–
–	–	4.94 µM	5.7	C[C@H](N)C(=O)N[C@H](Cc1c[nH]c2ccccc12)C(=O)N[C@@H](C)C(=O)NN(Cc1ccc(Cl)cc1)C(=O)N[C@H](Cc1ccccc1)C(=O)N[C@@H](CCCCN)C(N)=O	Active	–
inactive	inactive	–	–	C[C@H](NC(=O)[C@@H](Cc1c[nH]c2ccccc12)NC(=O)[C@@H](N)Cc1cnc[nH]1)C(=O)NN(CCCCCN)C(=O)N[C@H](Cc1ccccc1)C(=O)N[C@@H](CCCCN)C(N)=O	–	–
Active	Active	6.06 µM	4.6	C[C@H](NC(=O)[C@@H](Cc1c[nH]c2ccccc12)NC(=O)[C@@H](N)Cc1cnc[nH]1)C(=O)NN(Cc1ccc(F)cc1)C(=O)N[C@H](Cc1ccccc1)C(=O)N[C@@H](CCCCN)C(N)=O	Active	–
Active	Active	1.65 µM	17.1	CCCOc1ccc(CN(NC(=O)[C@H](C)NC(=O)[C@@H](Cc2c[nH]c3ccccc23)NC(=O)[C@@H](N)Cc2cnc[nH]2)C(=O)N[C@H](Cc2ccccc2)C(=O)N[C@@H](CCCCN)C(N)=O)cc1	–	Toxic
inactive	inactive	28.2 µM	–	C[C@H](NC(=O)[C@@H](Cc1c[nH]c2ccccc12)NC(=O)[C@@H](N)Cc1cnc[nH]1)C(=O)NN(Cc1cccc(O)c1)C(=O)N[C@H](Cc1ccccc1)C(=O)N[C@@H](CCCCN)C(N)=O	inactive	–
inactive	inactive	–	–	CC(C)Oc1ccc(CN(NC(=O)[C@H](C)NC(=O)[C@@H](Cc2c[nH]c3ccccc23)NC(=O)[C@@H](N)Cc2cnc[nH]2)C(=O)N[C@H](Cc2ccccc2)C(=O)N[C@@H](CCCCN)C(N)=O)cc1	–	–
Active	Active	3.6 µM	7.8	C[C@H](NC(=O)[C@@H](Cc1c[nH]c2ccccc12)NC(=O)[C@@H](N)Cc1cnc[nH]1)C(=O)NN(Cc1ccc(Br)cc1)C(=O)N[C@H](Cc1ccccc1)C(=O)N[C@@H](CCCCN)C(N)=O	Active	–
inactive	inactive	–	–	C[C@H](NC(=O)[C@@H](Cc1c[nH]c2ccccc12)NC(=O)[C@@H](N)Cc1cnc[nH]1)C(=O)NN(Cc1ccc(I)cc1)C(=O)N[C@H](Cc1ccccc1)C(=O)N[C@@H](CCCCN)C(N)=O	–	–
Active	Active	5.58 µM	5	Cc1cc(F)cc(C)c1CN(NC(=O)[C@H](C)NC(=O)[C@@H](Cc1c[nH]c2ccccc12)NC(=O)[C@@H](N)Cc1cnc[nH]1)C(=O)N[C@H](Cc1ccccc1)C(=O)N[C@@H](CCCCN)C(N)=O	inactive	–
inactive	inactive	–	–	C[C@H](NC(=O)[C@@H](Cc1c[nH]c2ccccc12)NC(=O)[C@@H](N)Cc1cnc[nH]1)C(=O)NN(Cc1ccc([N+](=O)[O-])cc1)C(=O)N[C@H](Cc1ccccc1)C(=O)N[C@@H](CCCCN)C(N)=O	–	–
–	–	–	18.1	Cc1[nH]c2ccccc2c1C[C@@H](NC(=O)[C@@H](N)Cc1c[nH]cn1)C(=O)N[C@@H](C)C(=O)N[C@@H](Cc1c[nH]c2ccccc12)C(=O)N[C@H](Cc1ccccc1)C(=O)N[C@@H](CCCCN)C(N)=O (H-H[dTrp(2-Me)]AW[dF]K-NH2)	–	–
inactive	inactive	–	–	C[C@H](N)C(=O)N[C@H](Cc1c[nH]c2ccccc12)C(=O)N[C@@H](C)C(=O)NN(Cc1ccc(I)cc1)C(=O)N[C@H](Cc1ccccc1)C(=O)N[C@@H](CCCCN)C(N)=O	–	–
–	–	9.19 µM	3.1	C[C@H](N)C(=O)N[C@H](Cc1c[nH]c2ccccc12)C(=O)N[C@@H](C)C(=O)NN(Cc1ccc(O)cc1)C(=O)N[C@H](Cc1ccccc1)C(=O)N[C@@H](CCCCN)C(N)=O (H-A[dW]A[azaTyr][dF]K-NH2)	inactive	–
Active	Active	19 µM	1.5	C[C@H](N)C(=O)N[C@H](Cc1c[nH]c2ccccc12)C(=O)N[C@@H](C)C(=O)NN(Cc1ccccc1)C(=O)N[C@H](Cc1ccccc1)C(=O)N[C@@H](CCCCN)C(N)=O (H-A[dW]A[azaPhe][dF]K-NH2)	inactive	–

SMILES	inhibition [1]	inhibition [2]	IC50 [3]	fold change (FC) [4]	Activity [5]	Activity [6]
C[C@H](NC(=O)[C@@H](Cc1c[nH]c2ccccc12)NC(=O)[C@@H](N)Cc1cnc[nH]1)C(=O)NN(Cc1ccccc1)C(=O)N[C@H](Cc1ccccc1)C(=O)N[C@@H](CCCCN)C(N)=O (H-H[dW]A[azaPhe][dF]K-NH2)	inactive	inactive	10.1 µM	2.8	inactive	–

Reference: ChEMBL document CHEMBL4017547, “Influences of Histidine-1 and Azaphenylalanine-4 on the Affinity, Anti-inflammatory, and Antiangiogenic Activities of Azapeptide Cluster of Differentiation 36 Receptor Modulators” (J Med Chem, 2017)
